Data as given in patent US8859534B2, “2-carboxamide-7-piperazinyl-benzofuran derivatives” (AstraZeneca AB, priority 2009, dated 2014).
pKi: −log10 of the molar value.

Legend:
5-HT1A receptor = 5-HT1A receptor (Homo sapiens (Human), UniProt P08908); test: 5-HT1A receptor competition binding assay (SPA, [3H]-8-OH-DPAT); settings: membranes of CHO cells expressing 5-HT1A receptors; radioligand [3H]-8-OH-DPAT 0.15-0.2 nM
Text: (§1) Assays that were used to measure affinity of the compounds of the present invention for 5-HT1A and 5-HT1B receptors are described in J. Recept Signal Transduct. Res. 22:483-495 (2002) and Naunyn-Schmiedeberg's Arch Pharmacol. 356:328-334 (1997) and incorporated by reference herein. These assays were be used with some modifications:
(§2) For the binding assay stably transfected chinese hamster ovary (CHO) cell lines expressing 5-HT1A receptors or 5-HT1B receptors were harvested by centrifugation at 300×g for 10 min and resuspended in 10 mM Tris-HCl, 5 mM EDTA at pH 7.4. The cells were pooled, recentrifuged and resuspended before homogenisation using a Dounce homogeniser (“type B”). Cell membranes were centrifuged at 48 000×g for 10 min and then resuspended in harvesting buffer using an Ultra-Turrax T8 (IKA Labortechnik, Germany), aliquots were stored frozen in −70° C.
Frozen membrane preparations were thawed, homogenized with an Ultra-Turrax and mixed with SPA beads (YSI coated WGA, GE Healthcare/Amersham, Buckinghamshire, UK) in assay buffer containing 50 mM Tris-Base, 4 mM MgCl2, 4 mM CaCl2 (only 5-HT1B), 1 mM EDTA, and adjusted to pH 7.4 with HCl. […] The binding assays were performed in 384-well plates in a final volume of 90 μL/well with the following additions: 9 μL binding buffer; 1 μL compound/DMSO/nonspecific; 20 μL radioligand; and 60 μL beads/membrane mixture. Non-specific binding was defined by using 10 μM WAY100635 for 5-HT1A and 10 μM Methiothepin for 5-HT1B. The assay plates were incubated for 4 hours where after the plates are counted in a Wallac 1450 Microbeta Trilux counter (PerkinElmer LifeScience, US) or similar. Data from the experiments were analyzed using a four parameter logistic equation as follows: Y=Bottom+(Top-Bottom)/1+10^(LogEC50-X)nH.

5-HT1B receptor = 5-HT1B receptor (Homo sapiens (Human), UniProt P28222); test: 5-HT1B receptor competition binding assay (SPA, [3H]-GR125743); settings: membranes of CHO cells expressing 5-HT1B receptors; radioligand [3H]-GR125743 0.15-0.2 nM
Sequence of 5-HT1B receptor (P28222 whole entry): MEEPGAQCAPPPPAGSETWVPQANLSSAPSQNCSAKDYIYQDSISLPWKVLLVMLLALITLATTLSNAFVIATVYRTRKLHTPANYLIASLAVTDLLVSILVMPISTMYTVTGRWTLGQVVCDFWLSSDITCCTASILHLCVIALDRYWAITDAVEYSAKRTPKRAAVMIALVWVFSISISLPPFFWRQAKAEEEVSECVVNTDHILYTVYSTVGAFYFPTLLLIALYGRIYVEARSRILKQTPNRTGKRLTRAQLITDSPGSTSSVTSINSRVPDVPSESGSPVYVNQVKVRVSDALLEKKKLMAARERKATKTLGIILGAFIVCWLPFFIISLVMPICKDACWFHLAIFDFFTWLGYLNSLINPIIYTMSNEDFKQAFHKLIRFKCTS
Text: as §1, §2
Frozen membrane preparations were thawed, homogenized with an Ultra-Turrax and mixed with SPA beads (YSI coated WGA, GE Healthcare/Amersham, Buckinghamshire, UK) in assay buffer containing 50 mM Tris-Base, 4 mM MgCl2, 4 mM CaCl2 (only 5-HT1B), 1 mM EDTA, and adjusted to pH 7.4 with HCl. The beads/membrane solution, final concentration 100 pM receptors for 5-HT1A, 300 pM receptors for 5-HT1B and 0.5 mg SPA beads/well, was pre-incubated in room temperature with stirring for 30-60 min. […] Five (log interval, 10 μM to 1 nM, final concentration) or ten serial dilutions (½-log interval, 10 μM to 0.32 nM, final concentration) of compounds were prepared in DMSO from 10 mM stock solutions. The binding assays were performed in 384-well plates in a final volume of 90 μL/well with the following additions: 9 μL binding buffer; 1 μL compound/DMSO/nonspecific; 20 μL radioligand; and 60 μL beads/membrane mixture. Non-specific binding was defined by using 10 μM WAY100635 for 5-HT1A and 10 μM Methiothepin for 5-HT1B. The assay plates were incubated for 4 hours where after the plates are counted in a Wallac 1450 Microbeta Trilux counter (PerkinElmer LifeScience, US) or similar. Data from the experiments were analyzed using a four parameter logistic equation as follows: Y=Bottom+(Top-Bottom)/1+10^(LogEC50-X)nH.
• Jerning E., Rosqvist S., Mohell N. (2002) NAD-299 antagonises 5-HT-stimulated and Spiperone-inhibited [^35S]GTPγS binding in cloned 5-HT1A receptors. J Recept Signal Transduct Res 22:483-495. • Doménech T., Beleta J., Palacios J. M. (1997) Characterization of human serotonin 1D and 1B receptors using [^3H]-GR-125743, a novel radiolabelled serotonin 5HT1D/1B receptor antagonist. Naunyn-Schmiedeberg's Arch Pharmacol 356:328-334.

Sequence of 5-HT1A receptor (P08908 whole entry): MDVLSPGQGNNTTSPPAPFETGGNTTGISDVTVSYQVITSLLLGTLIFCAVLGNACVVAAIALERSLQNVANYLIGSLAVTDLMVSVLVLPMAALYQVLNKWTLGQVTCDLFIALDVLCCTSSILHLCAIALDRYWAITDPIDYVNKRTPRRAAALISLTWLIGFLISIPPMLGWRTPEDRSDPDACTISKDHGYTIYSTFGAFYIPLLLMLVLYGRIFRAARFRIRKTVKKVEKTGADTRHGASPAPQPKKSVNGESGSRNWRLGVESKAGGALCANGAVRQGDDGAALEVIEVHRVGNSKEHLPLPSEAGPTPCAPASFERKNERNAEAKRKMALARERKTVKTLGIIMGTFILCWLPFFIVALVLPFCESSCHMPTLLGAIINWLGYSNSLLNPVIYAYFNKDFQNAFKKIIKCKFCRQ

pKi (5-HT1A receptor): 9.11
pKi (5-HT1B receptor): 8.36
SMILES: O=C(c1cc2cccc(N3CCN(CCc4ccccn4)CC3)c2o1)N1CCCC1 [Example 16, (7-(4-(2-(Pyridin-2-yl)ethyl)piperazin-1-yl)benzofuran-2-yl)(pyrrolidin-1-yl)methanone]
